Data as given in publication PMC6140472 (Proceedings of the National Academy of Sciences of the …, 2018).

Target: T1, MhFPPS (MhIDS-2), full-length (Murgantia histrionica, UniProt A0A343W970)
T1 sequence (A0A343W970 1-405): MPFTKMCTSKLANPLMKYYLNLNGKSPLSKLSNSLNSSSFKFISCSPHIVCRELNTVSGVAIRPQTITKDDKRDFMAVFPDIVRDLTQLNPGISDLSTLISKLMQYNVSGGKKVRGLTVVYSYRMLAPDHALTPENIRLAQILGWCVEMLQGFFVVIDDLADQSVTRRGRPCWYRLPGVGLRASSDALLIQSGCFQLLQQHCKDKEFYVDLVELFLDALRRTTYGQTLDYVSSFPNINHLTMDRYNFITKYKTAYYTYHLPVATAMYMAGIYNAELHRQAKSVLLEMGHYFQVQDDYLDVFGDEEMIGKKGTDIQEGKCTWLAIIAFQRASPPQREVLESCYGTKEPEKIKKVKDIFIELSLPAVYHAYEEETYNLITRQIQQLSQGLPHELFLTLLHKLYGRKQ
Assay: LC-MS/MS product assay
Format: biochemical

Row | SMILES | LC-MS/MS product assay (co-substrate DMAPP) | LC-MS/MS product assay (co-substrate IPP)
1 | C=C(C)CCOP(=O)(O)OP(=O)(O)O [IPP] | MhIDS-2 produced (E,E)-FPP from IPP and DMAPP | –
2 | CC(C)=CCOP(=O)(O)OP(=O)(O)O [DMAPP] | – | MhIDS-2 produced (E,E)-FPP from IPP and DMAPP
